Test results as given in ChEMBL document CHEMBL2034905, “Synthesis of benzimidazolyl-1,3,4-oxadiazol-2ylthio-N-phenyl (benzothiazolyl) acetamides as antibacterial, antifungal and antituberculosis agents” (Eur J Med Chem, 2012).
Values after ≈ are worked out from the molar mass of the structure shown.

What was measured:
Staphylococcus aureus [1] = assay: Antibacterial activity against Staphylococcus aureus MTCC 96 at 100 ug/disc by paper disc diffusion technique; format: functional; conditions: read-out: IZ
Bacillus cereus [2] = assay: Antibacterial activity against Bacillus cereus MTCC 430 at 100 ug/disc by paper disc diffusion technique; format: functional; conditions: read-out: IZ
Escherichia coli [3] = assay: Antibacterial activity against Escherichia coli MTCC 739 at 100 ug/disc by paper disc diffusion technique; format: functional; conditions: read-out: IZ
Pseudomonas aeruginosa [4] = assay: Antibacterial activity against Pseudomonas aeruginosa MTCC 741 at 100 ug/disc by paper disc diffusion technique; format: functional; conditions: read-out: IZ
Klebsiella pneumoniae [5] = assay: Antibacterial activity against Klebsiella pneumoniae MTCC 109 at 100 ug/disc by paper disc diffusion technique; format: functional; conditions: read-out: IZ
Salmonella typhi [6] = assay: Antibacterial activity against Salmonella typhi MTCC 733 at 100 ug/disc by paper disc diffusion technique; format: functional, Salmonella enterica subsp. enterica serovar Typhi; conditions: Salmonella enterica, read-out: IZ
Proteus vulgaris [7] = assay: Antibacterial activity against Proteus vulgaris MTCC 1771 at 100 ug/disc by paper disc diffusion technique; format: functional; conditions: read-out: IZ
Shigella flexneri [8] = assay: Antibacterial activity against Shigella flexneri MTCC 1457 at 100 ug/disc by paper disc diffusion technique; format: functional; conditions: read-out: IZ
Staphylococcus aureus [9] = assay: Antibacterial activity against Staphylococcus aureus MTCC 96 by agar streak dilution method; format: functional
Bacillus cereus [10] = assay: Antibacterial activity against Bacillus cereus MTCC 430 by agar streak dilution method; format: functional
Pseudomonas aeruginosa [11] = assay: Antibacterial activity against Pseudomonas aeruginosa MTCC 741 by agar streak dilution method; format: functional
Klebsiella pneumoniae [12] = assay: Antibacterial activity against Klebsiella pneumoniae MTCC 109 by agar streak dilution method; format: functional
Salmonella typhi [13] = assay: Antibacterial activity against Salmonella typhi MTCC 733 by agar streak dilution method; format: functional, Salmonella enterica subsp. enterica serovar Typhi; conditions: Salmonella enterica
Proteus vulgaris [14] = assay: Antibacterial activity against Proteus vulgaris MTCC 1771 by agar streak dilution method; format: functional
Shigella flexneri [15] = assay: Antibacterial activity against Shigella flexneri MTCC 1457 by agar streak dilution method; format: functional
[16] = system: Mycobacterium tuberculosis; assay: Antituberculosis activity against Mycobacterium tuberculosis H37Rv by Lowenstein-Jensen method; format: functional
[17] = system: Mycobacterium tuberculosis; assay: Antituberculosis activity against Mycobacterium tuberculosis H37Rv at 6.25 ug/ml by Lowenstein-Jensen method; format: functional
Escherichia coli [18] = assay: Antibacterial activity against Escherichia coli MTCC 739 by agar streak dilution method; format: functional
Aspergillus niger [19] = assay: Antifungal activity against Aspergillus niger MTCC 282 at 100 ug/disc by paper disc diffusion technique; format: functional; conditions: read-out: IZ
Aspergillus fumigatus [20] = assay: Antifungal activity against Aspergillus fumigatus MTCC 343 at 100 ug/disc by paper disc diffusion technique; format: functional; conditions: read-out: IZ
Aspergillus clavatus [21] = assay: Antifungal activity against Aspergillus clavatus MTCC 1323 at 100 ug/disc by paper disc diffusion technique; format: functional; conditions: read-out: IZ
Candida albicans [22] = assay: Antifungal activity against Candida albicans MTCC 183 at 100 ug/disc by paper disc diffusion technique; format: functional; conditions: read-out: IZ
Aspergillus niger [23] = assay: Antifungal activity against Aspergillus niger MTCC 282 by agar streak dilution method; format: functional
Aspergillus fumigatus [24] = assay: Antifungal activity against Aspergillus fumigatus MTCC 343 by agar streak dilution method; format: functional
Aspergillus clavatus [25] = assay: Antifungal activity against Aspergillus clavatus MTCC 1323 by agar streak dilution method; format: functional
Candida albicans [26] = assay: Antifungal activity against Candida albicans MTCC 183 by agar streak dilution method; format: functional
[27] = system: Mycobacterium tuberculosis; assay: Antituberculosis activity against Mycobacterium tuberculosis H37Rv by BACTEC MGIT method; format: functional

Structure (SMILES) | zone of inhibition at 100 µg/disc (Staphylococcus aureus [1]) [mm] | zone of inhibition at 100 µg/disc (Bacillus cereus [2]) [mm] | zone of inhibition at 100 µg/disc (Escherichia coli [3]) [mm] | zone of inhibition at 100 µg/disc (Pseudomonas aeruginosa [4]) [mm] | zone of inhibition at 100 µg/disc (Klebsiella pneumoniae [5]) [mm] | zone of inhibition at 100 µg/disc (Salmonella typhi [6]) [mm] | zone of inhibition at 100 µg/disc (Proteus vulgaris [7]) [mm] | zone of inhibition at 100 µg/disc (Shigella flexneri [8]) [mm] | MIC (Staphylococcus aureus [9]) [µg/mL] | MIC (Bacillus cereus [10]) [µg/mL] | MIC (Pseudomonas aeruginosa [11]) [µg/mL] | MIC (Klebsiella pneumoniae [12]) [µg/mL] | MIC (Salmonella typhi [13]) [µg/mL] | MIC (Proteus vulgaris [14]) [µg/mL] | MIC (Shigella flexneri [15]) [µg/mL] | MIC [16] [µg/mL] | inhibition at 6.25 µg/mL [17] [%] | MIC (Escherichia coli [18]) [µg/mL] | zone of inhibition at 100 µg/disc (Aspergillus niger [19]) [mm] | MIC [27] [µg/mL] | also measured
O=C(O)c1cn(C2CC2)c2cc(N3CCNCC3)c(F)cc2c1=O [CIPROFLOXACIN] | 30 | 31 | 32 | 33 | 33 | 30 | 31 | 32 | 1.56 (≈ 4.71 µM) | 0.39 (≈ 1.18 µM) | 0.78 (≈ 2.35 µM) | 0.78 (≈ 2.35 µM) | 0.39 (≈ 1.18 µM) | 0.39 (≈ 1.18 µM) | 1.56 (≈ 4.71 µM) |  |  |  |  |  | 
O=C(CSc1nnc(Cn2cnc3ccccc32)o1)Nc1ccc([N+](=O)[O-])cc1 | 20 | 13 | 12 | 20 | 20 | 13 | 14 | 19 | 12.5 (≈ 30.5 µM) | 100 (≈ 244 µM) | 50 (≈ 122 µM) | 100 (≈ 244 µM) | 100 (≈ 244 µM) | 100 (≈ 244 µM) | 100 (≈ 244 µM) | 100 (≈ 244 µM) | 94 | 100 (≈ 244 µM) | 18 | > 6.25 | zone of inhibition at 100 µg/disc (Aspergillus fumigatus [20]): 18 mm; zone of inhibition at 100 µg/disc (Aspergillus clavatus [21]): 24 mm; zone of inhibition at 100 µg/disc (Candida albicans [22]): 15 mm; MIC (Aspergillus niger [23]): 50 µg/mL (≈ 122 µM); MIC (Aspergillus fumigatus [24]): 100 µg/mL (≈ 244 µM); MIC (Aspergillus clavatus [25]): 50 µg/mL (≈ 122 µM); MIC (Candida albicans [26]): 100 µg/mL (≈ 244 µM)
O=C(CSc1nnc(Cn2cnc3ccccc32)o1)Nc1ccccc1 | 12 | < 10 | 13 | 21 | 13 | < 10 | 13 | 13 | 100 (≈ 274 µM) | 100 (≈ 274 µM) | 50 (≈ 137 µM) | 100 (≈ 274 µM) | 100 (≈ 274 µM) | 100 (≈ 274 µM) | 100 (≈ 274 µM) | 500 (≈ 1370 µM) | 95 | 100 (≈ 274 µM) | < 10 | > 6.25 | zone of inhibition at 100 µg/disc (Aspergillus fumigatus [20]): 13 mm; zone of inhibition at 100 µg/disc (Aspergillus clavatus [21]): < 10 mm; zone of inhibition at 100 µg/disc (Candida albicans [22]): < 10 mm; MIC (Aspergillus niger [23]): 100 µg/mL (≈ 274 µM); MIC (Aspergillus fumigatus [24]): 100 µg/mL (≈ 274 µM); MIC (Aspergillus clavatus [25]): 100 µg/mL (≈ 274 µM); MIC (Candida albicans [26]): 100 µg/mL (≈ 274 µM)
O=C(CSc1nnc(Cn2cnc3ccccc32)o1)Nc1ccc(Cl)cc1 | 15 | 11 | 15 | 26 | 21 | 17 | 20 | 22 | 50 (≈ 125 µM) | 50 (≈ 125 µM) | 12.5 (≈ 31.3 µM) | 50 (≈ 125 µM) | 100 (≈ 250 µM) | 50 (≈ 125 µM) | 12.5 (≈ 31.3 µM) | 25 (≈ 62.5 µM) | 98 | 100 (≈ 250 µM) | < 10 | > 6.25 | zone of inhibition at 100 µg/disc (Aspergillus fumigatus [20]): 16 mm; zone of inhibition at 100 µg/disc (Aspergillus clavatus [21]): 14 mm; zone of inhibition at 100 µg/disc (Candida albicans [22]): 14 mm; MIC (Aspergillus niger [23]): 100 µg/mL (≈ 250 µM); MIC (Aspergillus fumigatus [24]): 100 µg/mL (≈ 250 µM); MIC (Aspergillus clavatus [25]): 100 µg/mL (≈ 250 µM); MIC (Candida albicans [26]): 100 µg/mL (≈ 250 µM)
NNC(=O)c1ccncc1 [ISONIAZID] |  |  |  |  |  |  |  |  |  |  |  |  |  |  |  |  |  |  |  | 0.2 (≈ 1.46 µM) | 
